Measured values as given in patent US5132424A, “Pyrazolo-pyrrolo-pyrimidine-diones” (The Upjohn Company, priority 1991, dated 1992).

Key:
ACAT enzyme [1] = conditions: known drug; cited from earlier work
ACAT enzyme [2] = assay: ACAT Inhibition Assay (inhibition of cholesterol esterification in cultured Fu5AH rat hepatoma cells); assay type: cell-based; parameters: key to Activity: Active: Compounds with ACAT inhibiting activity equal to, or greater than, that of chloropromazine are declared active; conditions: for % Inhib. of Chol. Esterf.: Fu5AH cells, 18 hours; for Activity: compared with chlorpromazine
Text: A standard in vitro test system designed to identify compounds capable of inhibitory the ACAT enzyme in cultured Fu5AH rat hepatoma cells which was used to test the compounds of this invention, among others, is described hereinbelow.
Since the ACAT enzyme in Fu5AH cells is similar if not identical to the ACAT enzyme in arterial tissue in valuable, warm-blooded animals, including humans, the Fu5AH cell test represents a more efficient, simplified and economical means of screening for ACAT inhibitors than similar assays which depend upon the use of arterial tissue and arterial subfractions as the source of the ACAT enzyme.
For our in vitro test the Fu5AH rat hepatoma cell line was selected as our source of the ACAT enzyme since this particular cell line mimicked important characteristics of human and valuable animal arterial cells during the development of atherosclerosis. The Fu5AH cells accumulate cholesterol extensively when incubated with hyperlipemic plasma proteins; more importantly, Fu5HA cells accumulated the cholesterol predominantly as the esterified form through the action of the ACAT enzyme. See Rothblat, G. H., "Cholesteryl Ester Metabolism in Tissue Culture Cell. I. Accumulation in Fu5AH Rat Hepatoma Cells", Lipids, 9, (1974) page 526.
The Fu5AH cells used in our in vitro assay were first acquired from G. H. Rothblat, supra, of the Medical College of Pa.
The Fu5AH rat hepatoma cell-line was derived from the Reuber H-35 rat hepatoma. (See Reuber, M.D., "A Transplantable Bilesecreting Hepatocellular Carcinoa in the Rat", J. Natl., Cancer Inst., 26 (1961), page 891. The cell-line is maintained in Eagle's Minimal Essential Medium (MEM, GiBCO) supplemented with 5% bovine fetal calf serum. Incubation is at 36° C. in an atmosphere of 5% CO2 in air (Hotpack, Model 351922). Cells from stock cultures, grown to confluency in 25 cm^2 flasks (Falcon) containing 10 ml. medium, are detached with 0.25% trypsin in 1% ethylenediaminetetraacetic acid (EDTA) (Gibco), diluted 1:10 with MEM and mixed by agitation through a pipette which serves to disrupt the cellular clumps. Stock cultures are replenished with fresh medium at 3 to 4 day intervals.
One ml. aliquots of the diluted stock suspension described above are then transferred to 60 mm. dishes (Falcon) containing four ml. MEM and the seeded cells are allowed to grow to confluence (three days). At confluence, the medium is removed by aspiration and the cells are washed once with MEM. Five ml. of MEM supplemented with 5% hyperlipemic rabbit serum (HRS) (HRS is obtained from male New Zealane rabbits fed Purina Chow® rabbit feed supplemented with 1% cholesterol and 3% peanut oil (w/w/w/) for two to three weeks. Pooled sera from two or more rabbits are filtered through a 0.45 mμ filter (Nalgene) and stored frozen in convenient aliquots until used) and containing 1μ Ci/ml of ^3 H-cholesterol are then added to the dishes as the experimental (assay) medium. The experimental medium is labeled with 1,2-^3 H(N)-cholesterol (sp. act. approx. 40-60 Ci/mol, New Zealand Nuclear Corp.) prior to its addition to the confluent cultures and is prepared as follows. Five ml. of HRS is diluted with approximately 20 ml of MEM and the mixture is labeled by the addition of 100 μCi ^3 H-cholesterol dissolved in 100 μl absolute ethyl alcohol. The resulting mixture is then incubated for four hours at 36° C. to permit equilibration of the labeled cholesterol with the serum lipoprotein-cholesterol. After the equilibration period, the mixture is diluted to 100 ml. with MEM and used as the labeled assay medium. Following the addition of the labeled medium to the dishes, dimethylsulfoxide solutions of the test substances and the positive standard chloropromazine HCl (1 mg/ml) are added to the cultures in volumes of 25, 50, […]; control cultures receive equivalent volumes of dimethylsufoxide alone. […]

Structure (SMILES)	ACAT enzyme inhibition (in words) (ACAT enzyme [1])	activity in the ACAT enzyme screen (in words) (ACAT enzyme [2]; starting material)	% Inhib. of Chol. Esterf. (ACAT enzyme [2]; 5.0 ug/ml)	Activity (ACAT enzyme [2]; 5.0 ug/ml)	% Inhib. of Chol. Esterf. (ACAT enzyme [2]; 10.0 ug/ml)	Activity (ACAT enzyme [2]; 10.0 ug/ml)	% Inhib. of Chol. Esterf. (ACAT enzyme [2]; 15.0 ug/ml)	Activity (ACAT enzyme [2]; 15.0 ug/ml)	% Inhib. of Chol. Esterf. (ACAT enzyme [2]; 25.0 ug/ml (so in the source))	Activity (ACAT enzyme [2]; 25.0 ug/ml (so in the source))
CC(C)NC[C@H](O)COc1cccc2ccccc12 (racemic) [propanolol]	ACAT enzyme inhibiting activity									
O=C1c2[nH]c3cc(-c4ccccc4)nn3c(=O)c2CN1C1CCCCC1 [6-Cyclohexyl-4,7-dihydro-2-phenyl-5H-pyrazolo[1,5-a]pyrrolo[3,4-d]pyrimidine-5,8(6H)-dione, reference compound]		inactive								
CCCCCCn1c2c(c(=O)n3nc(-c4ccccc4)cc13)CN(C1CCCCC1)C2=O [Example 3, 6-Cyclohexyl-6,7-dihydro-4-hexyl-2-phenyl-4H-pyrazolo[1,5-a]pyrrolo[3,4-d]pyrimidine-5,8-dione]			43.4%	Active	48.2%	Active	49.2%	Active		
CCOc1ccc(-c2cc3n(Cc4ccccc4)c4c(c(=O)n3n2)CN(C2CCCCC2)C4=O)cc1 [Example 6, 6-Cyclohexyl-6,7-dihydro-2-(4-ethoxyphenyl)-4-(phenylmethyl)-(4H)-pyrazolo[1,5-a]pyrrolo[3,4-d]pyrimidine-5,8-dione]			49.8%	Active	75.4%	Active	87.2%	Active		
O=C1c2c(c(=O)n3nc(-c4ccccc4)cc3n2Cc2ccccc2)CN1c1ccccc1 [Example 7, 6,7-Dihydro-2,6-diphenyl-4-(phenylmethyl)-4H-pyrazolo[1,5-a]pyrrolo[3,4-d]-pyrimidine-5,8-dione]			21.2%	Active	17.6%	Inactive	15.0%	Inactive		
O=C1c2c(c(=O)n3nc(-c4ccccc4)cc3n2Cc2ccccc2)CN1Cc1ccccc1 [Example 8, 4,6-Bis(phenylmethyl)-6,7-dihydro-2-phenyl-4H-pyrazolo[1,5-a]pyrrolo[3,4-d]pyrimidine-5,8-dione]			60.8%	Active	89.5%	Active	92.3%	Active		
O=C1c2c(c(=O)n3nc(-c4ccccc4)cc3n2Cc2ccccc2)CCN1C1CCCCC1 [Example 9, 6-Cyclohexyl-2-phenyl-4-(phenylmethyl)-5,6,7,8-tetrahydro-4H-pyrazolo[1,5-a]pyrido[3,4-d]pyrimidine-5,9-dione]			53.2%	Active	82.1%	Active	89.8%	Active		
O=C1c2c(c(=O)n3ncc(-c4ccccc4)c3n2Cc2ccccc2)CN1C1CCCCC1 [Example 10, 6-Cyclohexyl-6,7-dihydro-3-phenyl-4-(phenylmethyl)-4H-pyrazolo-[1,5-a]pyrrolo[3,4-d]-pyrimidine-5,8-dione]			34.4%	Active	20.9%	Inactive	9.1%	Inactive		
O=C(Cn1c2c(c(=O)n3nc(-c4ccc(Cl)cc4)cc13)CN(C1CCCCC1)C2=O)c1ccccc1 [Example 11, 4-(Benzoylmethyl)-2-(4-chlorophenyl)-6-cyclohexyl-6,7-dihydro-4H-pyrazolo[1,5-a]pyrrolo[3,4-d]pyrimidine-5,8-dione]			78.2%	Active	84.5%	Active			89.2%	Active
O=C1c2c(c(=O)n3nc(-c4ccccc4)cc3n2CC(O)c2ccccc2)CN1C1CCCCC1 (stereo not drawn) [Example 14, 6-Cyclohexyl-6,7-dihydro-4-(2-hydroxy-2-phenylethyl)-2-phenyl-4H-oyrazolo[1,5-a] pyrrolo[3,4-d]pyrimidine-5,8-dione]			49.6%	Active	65.9%	Active	40.2%	Inactive		
C=CCOc1ccc(-c2cc3n(Cc4ccccc4)c4c(c(=O)n3n2)CN(C2CCCCC2)C4=O)cc1 [Example 15, 6-Cyclohexyl-6,7-dihydro-2-[4-(2-propenyloxy)phenyl]-4-phenylmethyl-4H-pyrazolo[1,5-a]pyrrolo[3,4-d]pyrimidine-5,8-dione]			36.0%	Active	65.3%	Active	84.3%	Active		
O=C1c2c(c(=O)n3nc(-c4ccc(O)cc4)cc3n2Cc2ccccc2)CN1C1CCCCC1 [Example 16, 6-Cyclohexyl-6,7-dihydro-2-(4-hydroxyphenyl)-4-phenyl-methyl-4H-pyrazolo[1,5-a]pyrrolo[3,4-d]pyrimidine-5,8-dione]			4.3%	Inactive	32.7%	Inactive	66.5%	Active		
CN1C(=O)CN=C(c2ccccc2)c2cc(Cl)ccc21 [diazepam]	ACAT enzyme inhibiting activity									
COc1ccc([C@@H]2Sc3ccccc3N(CCN(C)C)C(=O)[C@@H]2OC(C)=O)cc1 [diltiazem]	inhibit the ACAT enzyme									
COC(=O)C1=C(C)NC(C)=C(C(=O)OC)C1c1ccccc1[N+](=O)[O-] [nifedipine]	inhibit the ACAT enzyme									
COc1ccc(CCN(C)CCCC(C#N)(c2ccc(OC)c(OC)c2)C(C)C)cc1OC (stereo not drawn) [verapamil]	inhibit the ACAT enzyme									
